US12655116B2, “Substituted isophthalic acid diamides” (Bayer Aktiengesellschaft, priority 2020, dated 2026)

Tests used:
SETVI [1] = assay: Pre-emergence herbicidal action against SETVI; assay type: in vivo, Setaria viridis; conditions: Setaria viridis, 504 h; for pest or weed control at 80 g/ha: dosage 80 g/ha
In short: (§1)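 Sandy loam pots, seeds covered with soil, then surface-treated with WP or EC formulations at 600–800 l/ha water plus 0.2% wetting agent. Greenhouse, 3 weeks. Percent damage vs untreated controls.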

ECHCG [2] = assay: Post-emergence herbicidal action against ECHCG; assay type: in vivo, Echinochloa crus-galli; conditions: Echinochloa crus-galli, 504 h; for pest or weed control at 5 g/ha: dosage 5 g/ha; for pest or weed control at 20 g/ha: dosage 20 g/ha
In short: (§2)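 Herbicidal action is a visual percentage rating (0% = as untreated control, 100% = plants dead) made roughly 3 weeks after treatment. Plants were grown in sandy loam in the greenhouse and treated at the one-leaf stage, 2 to 3 weeks post-sowing. Treatment was a foliar spray of wettable-powder or emulsion-concentrate formulations at 600 to 800 l/ha water plus 0.2% wetting agent.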

LOLRI = assay: Pre-emergence herbicidal action against LOLRI; assay type: in vivo, Lolium rigidum; conditions: Lolium rigidum, 504 h, 80 g/ha
In short: as §1

ALOMY [3] = assay: Post-emergence herbicidal action against ALOMY; assay type: in vivo, Alopecurus myosuroides; conditions: Alopecurus myosuroides, 504 h, dosage 20 g/ha, visual assessment about 3 weeks after treatment vs untreated controls
In short: as §2

ABUTH [4] = assay: Pre-emergence herbicidal action against ABUTH; assay type: in vivo, Abutilon theophrasti; conditions: Abutilon theophrasti, 504 h; for pest or weed control at 80 g/ha: scored visually after 3 weeks vs untreated controls (100% = plants have died, 0% = like control plants); for pest or weed control at 20 g/ha: dosage 20 g/ha, scored visually after 3 weeks vs untreated controls, 100% = plants have died, 0% = like control plants, read-out: Pre-emergence action against ABUTH (herbicidal activity in percent)
In short: as §1

DIGSA [5] = assay: Pre-emergence herbicidal action against DIGSA; assay type: in vivo, Digitaria sanguinalis; conditions: Digitaria sanguinalis, 504 h; for pest or weed control at 20 g/ha: dosage 20 g/ha; for pest or weed control at 80 g/ha: dosage 80 g/ha
In short: as §1

MATIN [6] = assay: Pre-emergence herbicidal action against MATIN; assay type: in vivo, Matricaria inodora; conditions: Tripleurospermum inodorum, 504 h; for pest or weed control at 20 g/ha: dosage 20 g/ha; for pest or weed control at 80 g/ha: dosage 80 g/ha
In short: as §1

VERPE [7] = assay: Post-emergence herbicidal action against VERPE; assay type: in vivo, Veronica persica; conditions: Veronica persica, 504 h, 20 g/ha
In short: as §2

VIOTR [8] = assay: Post-emergence herbicidal action against VIOTR; assay type: in vivo, Viola tricolor; conditions: Viola tricolor, 504 h
In short: as §2

AVEFA [9] = assay: Pre-emergence herbicidal action against AVEFA; assay type: in vivo, Avena fatua; conditions: Avena fatua, 504 h, pre-emergence
In short: as §1

PHBPU [10] = assay: Pre-emergence herbicidal action against PHBPU; assay type: in vivo, Pharbitis purpurea; conditions: Ipomoea purpurea, 504 h, dosage 80 g/ha
In short: as §1

AMARE [11] = assay: Post-emergence herbicidal action against AMARE; assay type: in vivo, Amaranthus retroflexus; conditions: Amaranthus retroflexus, 504 h, 20 g/ha, visual assessment about 3 weeks after treatment, 100% = plants have died, 0% = like control plants
In short: as §2

PHBPU [12] = assay: Post-emergence herbicidal action against PHBPU; assay type: in vivo, Pharbitis purpurea; conditions: Ipomoea purpurea, 504 h; for pest or weed control at 5 g/ha: dosage 5 g/ha; for pest or weed control at 20 g/ha: dosage 20 g/ha
In short: as §2

AMARE [13] = assay: Pre-emergence herbicidal action against AMARE; assay type: in vivo, Amaranthus retroflexus; conditions: Amaranthus retroflexus, 504 h, scored visually after 3 weeks vs untreated controls, 100% = plants have died, 0% = like control plants
In short: as §1

POLCO = assay: Pre-emergence herbicidal action against POLCO; assay type: in vivo, Polygonum convolvulus; conditions: Fallopia convolvulus, 504 h; for pest or weed control at 80 g/ha: dosage 80 g/ha
In short: as §1

ECHCG [14] = assay: Pre-emergence herbicidal action against ECHCG; assay type: in vivo, Echinochloa crus-galli; conditions: Echinochloa crus-galli, 504 h
In short: as §1

SETVI [15] = assay: Post-emergence herbicidal action against SETVI; assay type: in vivo, Setaria viridis; conditions: Setaria viridis, 504 h; for pest or weed control at 20 g/ha: dosage 20 g/ha
In short: as §2

ABUTH [16] = assay: Post-emergence herbicidal action against ABUTH; assay type: in vivo, Abutilon theophrasti; conditions: Abutilon theophrasti, 504 h, visual assessment about 3 weeks after treatment vs untreated controls; for pest or weed control at 5 g/ha: dosage 5 g/ha; for pest or weed control at 20 g/ha: dosage 20 g/ha
In short: as §2

DIGSA [17] = assay: Post-emergence herbicidal action against DIGSA; assay type: in vivo, Digitaria sanguinalis; conditions: Digitaria sanguinalis, 504 h
In short: as §2

VERPE [18] = assay: Pre-emergence herbicidal action against VERPE; assay type: in vivo, Veronica persica; conditions: Veronica persica, 504 h, dosage 80 g/ha
In short: as §1

VIOTR [19] = assay: Pre-emergence herbicidal action against VIOTR; assay type: in vivo, Viola tricolor; conditions: Viola tricolor, 504 h; for pest or weed control at 20 g/ha: dosage 20 g/ha; for pest or weed control at 80 g/ha: dosage 80 g/ha
In short: as §1

ALOMY [20] = assay: Pre-emergence herbicidal action against ALOMY; assay type: in vivo, Alopecurus myosuroides; conditions: Alopecurus myosuroides, 504 h; 80 g/ha, pre-emergence, scored visually after 3 weeks vs untreated controls (100% = plants have died, 0% = like control plants)
In short: as §1

MATIN [21] = assay: Post-emergence herbicidal action against MATIN; assay type: in vivo, Matricaria inodora; conditions: Tripleurospermum inodorum, 504 h; for pest or weed control at 5 g/ha: dosage 5 g/ha; for pest or weed control at 20 g/ha: dosage 20 g/ha
In short: as §2

AVEFA [22] = assay: Post-emergence herbicidal action against AVEFA; assay type: in vivo, Avena fatua; conditions: Avena fatua, 504 h, 20 g/ha, visual assessment about 3 weeks after treatment, 100% = plants have died, 0% = like control plants
In short: as §2

STEME [23] = assay: Pre-emergence herbicidal action against STEME; assay type: in vivo, Stellaria media; conditions: Stellaria media, 504 h
In short: as §1

STEME [24] = assay: Post-emergence herbicidal action against STEME; assay type: in vivo, Stellaria media; conditions: Stellaria media, 504 h, 20 g/ha
In short: as §2

| SMILES | pest or weed control at 80 g/ha (SETVI [1]) | pest or weed control at 5 g/ha (ECHCG [2]) | pest or weed control at 20 g/ha (ECHCG [2]) | pest or weed control at 80 g/ha (LOLRI) | pest or weed control at 80 g/ha (ABUTH [4]) | pest or weed control at 20 g/ha (ABUTH [4]) | pest or weed control at 20 g/ha (DIGSA [5]) | pest or weed control at 80 g/ha (DIGSA [5]) | pest or weed control at 20 g/ha (MATIN [6]) | pest or weed control at 80 g/ha (MATIN [6]) | pest or weed control at 20 g/ha (VERPE [7]) | pest or weed control at 5 g/ha (VIOTR [8]) | pest or weed control at 20 g/ha (VIOTR [8]) | pest or weed control at 80 g/ha (AVEFA [9]) | pest or weed control at 80 g/ha (PHBPU [10]) | pest or weed control at 20 g/ha (AMARE [11]) | pest or weed control at 5 g/ha (PHBPU [12]) | pest or weed control at 20 g/ha (PHBPU [12]) | pest or weed control at 20 g/ha (AMARE [13]) | pest or weed control at 80 g/ha (AMARE [13]) | also measured |
| --- | --- | --- | --- | --- | --- | --- | --- | --- | --- | --- | --- | --- | --- | --- | --- | --- | --- | --- | --- | --- | --- |
| CCn1nnnc1NC(=O)c1ccc(C(F)(F)F)c(C(=O)NC2CC2)c1C1CC1 [Example 2-288] | 100% | 80% | 80% | 90% | 100% | 100% | 100% | 100% | 90% | 100% | 80% | 90% | 100% | 90% | 90% | 100% | 80% | 90% | 100% | 100% | pest or weed control at 20 g/ha (SETVI [1]; dosage 20 g/ha): 90%; pest or weed control at 20 g/ha (ALOMY [3]): 90%; pest or weed control at 20 g/ha (AVEFA [9]; 20 g/ha, scored visually after 3 weeks, 100% = plants have died, 0% = like control plants): 80%; pest or weed control at 80 g/ha (POLCO): 90%; pest or weed control at 20 g/ha (ECHCG [14]; 20 g/ha): 90%; pest or weed control at 80 g/ha (ECHCG [14]): 100%; pest or weed control at 5 g/ha (SETVI [15]; dosage 5 g/ha): 80%; pest or weed control at 20 g/ha (SETVI [15]): 90%; pest or weed control at 5 g/ha (ABUTH [16]): 80%; pest or weed control at 20 g/ha (ABUTH [16]): 80%; pest or weed control at 5 g/ha (DIGSA [17]): 90%; pest or weed control at 20 g/ha (DIGSA [17]): 90%; pest or weed control at 80 g/ha (VERPE [18]): 100%; pest or weed control at 20 g/ha (VIOTR [19]): 100%; pest or weed control at 80 g/ha (VIOTR [19]): 100%; pest or weed control at 80 g/ha (ALOMY [20]): 90%; pest or weed control at 5 g/ha (MATIN [21]): 80%; pest or weed control at 20 g/ha (MATIN [21]): 90%; pest or weed control at 20 g/ha (AVEFA [22]): 80% |
| CCNC(=O)c1c(C(F)F)ccc(C(=O)Nc2nnnn2C)c1C [Example 1-45] | 100% | 80% | 80% | 80% | 100% | 80% | 100% | 100% | 100% | 100% | 80% | 80% | 90% | 90% | 90% | 90% | 80% | 80% | 100% | 100% | pest or weed control at 20 g/ha (STEME [23]; dosage 20 g/ha): 90%; pest or weed control at 80 g/ha (STEME [23]; dosage 80 g/ha): 90%; pest or weed control at 20 g/ha (POLCO; dosage 20 g/ha): 90%; pest or weed control at 80 g/ha (POLCO): 90%; pest or weed control at 80 g/ha (ECHCG [14]): 90%; pest or weed control at 20 g/ha (SETVI [15]): 80%; pest or weed control at 20 g/ha (STEME [24]): 80%; pest or weed control at 5 g/ha (ABUTH [16]): 80%; pest or weed control at 20 g/ha (ABUTH [16]): 90%; pest or weed control at 5 g/ha (DIGSA [17]): 80%; pest or weed control at 20 g/ha (DIGSA [17]): 80%; pest or weed control at 80 g/ha (VERPE [18]): 90%; pest or weed control at 20 g/ha (VIOTR [19]): 80%; pest or weed control at 80 g/ha (VIOTR [19]): 100%; pest or weed control at 80 g/ha (ALOMY [20]): 90%; pest or weed control at 5 g/ha (MATIN [21]): 80%; pest or weed control at 20 g/ha (MATIN [21]): 80% |
